Source: patent publication US20210228467A1, “High-Potency Vitamin C Topical Formulations” (Baek Clinical Inc., priority 2018, published 2021)
Like-named read-outs stand apart in the source and are kept apart here. Values belong to the compound of their own block, whether it stands above or below them.

Assays:
[1] = Solubility of optional additional components in polyol solvents; type: physicochemical
Text: Additional ingredients were chosen for their compatibility with (e.g., miscibility in) 1,3 propanediol, 1,2 propanediol, and 1,3 butanediol.

[2] = use of 4% HQ versus 5% Vitamin C; cited from earlier work
[3] = Comparative studies: solubilization with heating and crystallization on room temperature storage; type: physicochemical; details: ascorbic acid together with urea in propylene glycol, butylene glycol and propanediol
Description: This example was reproduced.
All mixtures were heated to 85° C.

[4] = Solubilization / recrystallization of AA with urea in 1,3 propanediol; type: physicochemical
Text: Next, concentrations of ascorbic acid beyond the aforementioned maximum concentration are solubilized, using urea as a co-solvent.

[5] = 20% urea solution, cited from earlier work
[6] = cited from earlier work

solubility ([1]; in 1,3-propanediol): shows solubility
Compound: CC1(C)[C@@H](O[C@H]2O[C@H](C(=O)O)[C@@H](O)[C@H](O)[C@H]2O[C@@H]2O[C@H](C(=O)O)[C@@H](O)[C@H](O)[C@H]2O)CC[C@]2(C)[C@H]3C(=O)C=C4[C@@H]5C[C@@](C)(C(=O)O)CC[C@]5(C)CC[C@@]4(C)[C@]3(C)CC[C@@H]12 [glycyrrhizic acid, Glycyrrhizic acid]

maximum concentrations soluble before urea starts to precipitate (the ceiling) [3]: 20%
minimum amount U required to solubilize 20% AA [4]: ~10%
saturation of U reached before recrystallization of U [4]: ~27.8%
Compound: NC(N)=O [U, urea]
pH ([5]; after 11 months at room temperature): 8.8
pH ([5]; start): 7.4

solubility ([1]; at a concentration of 0.2% in 1,3 propanediol, 1,2 propanediol and 1,3 butanediol): soluble
Compound: Madecassoside

solubility ([1]; in 1,3 propanediol, 1,2 propanediol and 1,3 butanediol at 0.5-1%): readily soluble
Compound: COc1cc(CC(C(C)=O)C(C)=O)ccc1O [Acetyl zingerone]

More lines, now with the values behind:

Compound: O=C1O[C@H]([C@@H](O)CO)C(O)=C1O [AA, L-ascorbic acid]
improvement [2]: 62.5%

Compound: Oc1ccc(O)cc1 [HQ, hydroquinone]
improvement [2]: 93%
side-effects [2]: 68.7%

Compound: O=C(O)CCCCCCCC(=O)O [AzA, Azelaic acid, reference compound]
concentration solubilized ([1]; in 1,3 propanediol): up to 10%
concentration solubilized ([1]; with 10% AA, 5% U in a 1,3 propanediol base): 7.5%
pKa [6]: 4.15
